Experimental data: patent US8329720B1 (Pisgah Laboratories, Inc., priority 2007, dated 2012)

Columns and labels:
[1] = Intrinsic dissolution dose dumping profile (ethanol concentration in acidic media, FDA protocol); format: physicochemical; details: for dose dumping dissolution profile: 0.1N HCl with 0, 5, 20 and 40% ethanol; for dose dumping profile at the 5% ethanol condition: 5% ethanol in 0.1N HCl; for dose dumping profile at the 20% ethanol condition: 20% ethanol in 0.1N HCl; for active released: in approximately sixty minutes; for release: 40% EtOH in 0.1N HCl
Source text: A general overview of this concern may be found at http://www.fda.gov/ohrms/dockets/AC/05/slides/2005-4187S2—02_Hussain.ppt. This Oct. 26, 2005 overview presentation by the deputy director OPS/CDER of the FDA and entitled “Preventing Alcohol Induced Dose Dumping is a Desired Product Design Feature” describes the dose-dumping phenomenon. Dose dumping can be employed by those with the deliberate intention of abusing the drug, but may also occur during the normal/moderate consumption of alcohol while taking a prescribed medication. Simply, dose dumping is that condition “in which the complete dose may be more rapidly released from the dosage form than intended, creating a potential safety risk”. Clearly, with the opioid narcotics, dose dumping for the intention of experiencing the “high” or rush, may have severe, even deadly consequences. The presentation further categorizes the results from dose dumping testing as either vulnerable, rugged or uncertain. If the dissolution profile in the presence of alcohol accelerates the release of the active ingredient, the product is classified as vulnerable and would likely not receive FDA market approval. In contrast, a rugged product design is achieved when the dissolution profile of the drug substance, again in the presence of alcohol, is identical to or is available to a lesser extent as compared to the control. The testing regimen recommended within the FDA's draft guidance includes determining the dissolution profile in 0.1N HCl solutions wherein the sample is tested in the medium and at increasing levels of ethanol, specifically at 5, 20 and 40% alcohol.
(§1) The opioid salts of the present invention were tested to determine their dissolution profile as a function of pH, and as a function of ethanol concentration in acidic media (dose dumping). To perform these experiments the buffered dissolution media and acidic ethanol solutions were prepared as identified herein, “Preparation of Solutions”. The test procedure was derived from the procedures cited in the United States Pharmacopeia and National Formulary (USP), numbers <1087> and <711>. The dose dumping procedure was adopted from the United States Food and Drug Administration's guidance regarding the dose dumping of oxymorphone. The sampling interval and regimen was defined and each sample analyzed by HPLC. Results from the HPLC analyses were plotted as a function of time and dissolution condition (FIG. 37 through FIG. 97 inclusive, and FIGS. 102-105, 109, 110, 114 and 115). This procedure was used to obtain the pH and dose dumping dissolution profiles disclosed herein. […] All activities within the procedure were conducted and executed for each of the compounds reported herein. Unless otherwise stated HPLC measurements were done and reported at ambient temperature and dissolution testing was done nominally at 37° C.
The following procedures were derived from the FDA Draft Guidance for Oxymorphone Hydrochloride (recommended in November, 2007).
(§2) The material which is to be subjected to dissolution is weighed using an analytical balance. 85.00-95.00 mg of the analyte was weighed and transferred to an International Crystals Laboratories fixed/static disk 316 stainless die with a 0.8 cm diameter die cavity. A hardened steel punch was then inserted into the cavity and the material was compressed at 2000 psi for 4-5 minutes using a bench top hydraulic press. The punch is then removed to expose the 0.5 cm^2 pellet surface. A Viton gasket is then placed around the threaded shoulder of the die and a polypropylene cap is threaded onto the die. This process can be repeated to generate as many pellets as is necessary for the experiment.
A Distek Dissolution System equipped with a model number TCS0200C temperature control system, was filled with water and set to a temperature of 37.3° C. The vessel cavities were then equipped with four 1 L flat-bottomed Distek dissolution vessels.

[2] = Intrinsic dissolution profile as a function of pH; format: physicochemical; details: result in words; for pH dissolution profile: 0.1N HCl (pH 1), pH 4.5 acetate buffer, pH 6.8 phosphate buffer, water, 37° C.; for dissolution behavior at the low pH condition: 0.1N HCl
Experimental: as §1
The following procedures were derived from USP <1087> Intrinsic Dissolution and USP <711> Dissolution methods, as well as manufacturer recommended procedures for use of the International Crystals Laboratories intrinsic dissolution disks.
as §2, with “45.00-55” for “85.00-95.00”
A Distek Dissolution System equipped with a model number TCS0200C temperature control system was filled with water and set to a temperature of 37.3° C. The vessel cavities were then equipped with four 1 L flat-bottomed Distek dissolution vessels. Four vessels were then filled with 500 mL of the following media: 0.1N HCl, pH 4.5 acetate buffer, pH 6.8 phosphate buffer, and USP grade water. The solutions were allowed to warm in the water bath for approximately 1 hour, but not exceeding 3 hours, or until the temperature of the media matched that of the water bath. Paddles were then mounted to the Distek stirring apparatus above the four dissolution vessels such that the distance between the paddle and the die face is 1 inch. The paddle speed is then set to 50 RPM.
The pellet prepared as described above was submerged into a vessel prepared as described above, with the pellet surface facing up (metal die up, polypropylene cap facing down). Forceps are used to aid this process so that the pellet apparatus can be gently placed into the bottom of the vessel. A timer is used to track the sampling intervals, and is started when the pellet is dropped into the solution. The lid to the dissolution apparatus is then lowered and the stirring apparatus is activated. Some planning is required in spacing out pellet drops such that each vessel can be sampled at the desired time intervals. Sampling is done by aspirating 10 mL of the solution using a Popper® Micro-Mate® Interchangeable Hypodermic Syringe equipped with a Vortex Pharma Group 10 micron cannula porous filter. This filter should be replaced after each use. Although sampling intervals can change from experiment to experiment, the following has been heavily utilized for the experiments described herein.

[3] = Modified dose dumping protocol: ethanol solutions in the absence of the 0.1N HCl media

COc1ccc2c3c1O[C@H]1C(=O)CC[C@H]4[C@@H](C2)N(C)CC[C@]314.O=C(O)C(O)C(O)C(=O)O [hydrocodone bitartrate, reference compound]
dose dumping dissolution profile ([1]; result in words): exhibit dose dumping propensities
pH dissolution profile [2]: immediate release (IR) characteristics

Polymorphic Hydrocodone Pamoate Form II
dose dumping profile at the 5% ethanol condition ([1]; result in words): essentially identical to the 0.1N HCl condition
dose dumping profile at the 20% ethanol condition ([1]; result in words): did not accelerate dose dumping
dose dumping profile at the 40% ethanol condition ([1]; 40% ethanol in 0.1N HCl, result in words): did not promote dose dumping
dissolution behavior at the low pH condition [2]: slower release than Form I

Amorphous Hydrocodone Pamoate Acetone Solvate [solvated amorphous form]
dose dumping dissolution profile ([1]; result in words): somewhat erratic compared with Form II

Oxycodone Pamoate [amorphous oxycodone pamoate]
time to complete (full) release of the opiate ([1]; 0.1N HCl media, no EtOH): about one
dose dumping dissolution profile ([1]; result in words): no dose dumping benefit
dissolution profile as a function of ethanol concentration ([3]; 0.1N HCl with 0% EtOH, and 5, 20, 40% EtOH without acid, result in words): slow linear process
opiate released ([3]; 40% EtOH, over about one hour): approximately 60%
pamoate released (apparent pamoate equilibrium solubility) ([3]; 40% ethanol condition, FIG. 62): about 85%
time to apparent pamoate equilibrium solubility ([3]; 40% ethanol condition, FIG. 62): approximately 45 minutes

Oxycodone Xinafoate
dose dumping dissolution profile ([1]; result in words): dose dumps immediately at the higher EtOH concentrations
pH dissolution profile [2]: poor dissolution profile at pH 1 with a gradual release as the pH increases

COc1ccc2c3c1O[C@H]1C(=O)CC[C@@]4(O)[C@@H](C2)N(C)CC[C@]314.Cl [oxycodone hydrochloride, reference compound]
dose dumping dissolution profile ([1]; result in words): apparent solution equilibrium was obtained within minutes
dissolution in the control condition ([1]; 0.1 N HCl without EtOH, result in words): complete dissolution within minutes
enhancement of the release profile by the acidic media ([1]; at each ethanol level, comparing FIGS. 58 and 59): more than 20 % (absolute)
pH dissolution profile [2]: immediate release (IR) characteristics
amount of oxycodone extracted / opiate immediately released ([3]; 40% EtOH (about 80 proof), no 0.1N HCl): about 50%

Amorphous Hydrocodone Pamoate Form I [amorphous Form I]
dose dumping dissolution profile ([1]; result in words): somewhat erratic compared with Form II

CN(C)CCCN1c2ccccc2CCc2ccccc21.CN(C)CCCN1c2ccccc2CCc2ccccc21.O=C(O)c1cc2ccccc2c(Cc2c(O)c(C(=O)O)cc3ccccc23)c1O [imipramine pamoate, reference compound]
dose dumping dissolution profile ([1]; result in words): exhibited dose dumping properties

Amorphous Hydrocodone Pamoate Form II
dose dumping profile at the 5% ethanol condition ([1]; result in words): slow (and essentially identical) dissolution response
dose dumping profile at the 20% ethanol condition ([1]; result in words): slow (and essentially identical) dissolution response
dissolution behavior at the low pH condition [2]: ranks between that observed for Form I and the acetone solvated form

Oxycodone Pamoate [polymorphic form of oxycodone pamoate]
active released ([1]; 0.1N HCl containing 5% EtOH): about 70%
active released ([1]; 0.1N HCl): about 70%
equilibrium solubility (release) ([1]; 20% EtOH in 0.1N HCl, reached in about 30 minutes): ~10%
release ([1]; after 3 hours): approximately 40%
release ([1]; after about 80 minutes): ~10%
pH dissolution profile [2]: essentially identical pH dissolution profile as the amorphous form

Hydrocodone Xinafoate
pH dissolution profile [2]: extended release at pH 1, and independent release as the pH increases
